A short description of series [1]: Toxicity in mice (LD50; 30-day daily dosing). In kind it is in vivo. To be noted: mouse, in vivo, ip; mice, intraperitoneal injection.
The target in series [2] is T1, Dopamine β-Hydroxylase (Bos taurus, UniProt P15101).
T1 sequence (P15101 1-610): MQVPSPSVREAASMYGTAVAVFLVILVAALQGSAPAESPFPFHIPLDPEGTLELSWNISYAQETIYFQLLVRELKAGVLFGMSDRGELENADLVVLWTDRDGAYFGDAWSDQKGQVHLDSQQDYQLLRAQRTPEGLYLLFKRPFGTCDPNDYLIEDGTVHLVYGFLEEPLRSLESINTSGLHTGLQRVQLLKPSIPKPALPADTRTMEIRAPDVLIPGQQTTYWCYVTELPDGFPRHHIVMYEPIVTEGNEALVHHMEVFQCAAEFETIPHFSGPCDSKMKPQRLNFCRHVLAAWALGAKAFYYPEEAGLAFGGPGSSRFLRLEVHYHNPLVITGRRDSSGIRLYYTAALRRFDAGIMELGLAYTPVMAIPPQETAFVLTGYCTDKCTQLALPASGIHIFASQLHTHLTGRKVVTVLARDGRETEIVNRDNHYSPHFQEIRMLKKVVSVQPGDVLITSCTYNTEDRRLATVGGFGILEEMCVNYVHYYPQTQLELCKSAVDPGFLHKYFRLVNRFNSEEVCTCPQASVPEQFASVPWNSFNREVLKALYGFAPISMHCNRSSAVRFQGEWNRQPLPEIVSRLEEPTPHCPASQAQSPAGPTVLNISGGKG
Description: Inhibition of dopamine β-hydroxylase (DH). To be noted: for inhibition at 200 µg/mL: 200 mcg/cc. The format is biochemical. The text has this: (§1) The new compounds of the present invention have been examined for their biological activities, and their inhibition to tyrosine hydroxylase and dopamine β-hydroxylase are summarized below in Table 2. The details of the test methods used and the close relationship and reliable correlation of biological activities between in vitro and in vivo test results are well documented in the literature, e.g. J. Antibiot. 23: 514 (1970); Biochem. Pharmacol., 19: 35 (1970); and J. Am. Chem. Soc. 93: 1285 (1971). […] The effects of this compound on tyrosine hydroxylase and dopamine β-hydroxylase were also tested by the methods described in the Journal of Antibiotics 23:514 (1970) and Biochem. Pharmacol. 19:35 (1970), respectively.
(§2) The chemical structure of the products [I], solvent for hydrogenation and solvent for recrystallization are summarised in Table 1, and the yields of the products [I] are also shown in Table 1 together with their melting points, elemental analysis data, Inhibition (%) of tyrosine hydroxylase (TH) and Inhibition (%) to dopamine β-hydroxylase (DH) at different concentrations of the products [I] of 100 mcg/cc and 200 mcg/cc.

Series [3] concerns genetically hypertensive rats. Description: Blood pressure in genetically hypertensive rats. The format is in vivo. To be noted: genetically hypertensive rats (Okamoto). The text has this: (§3) Hydroxylation of tyrosine is the rate-limiting step of norepinephrine biosynthesis. Therefore, inhibition of tyrosine hydroxylase results in inhibition of norepinephrine synthesis in vivo which results in lowering the blood pressure. […] Okamoto, of the Medical School, University of Kyoto, Japan, and described in "Journal of Antibiotics" 23: 514 (1970).

The subject of series [4] is mice and rats. Description: Sleeping / sedative effect in mice and rats. As to conditions: injection of 200 mg/kg to mice and rats. The format is in vivo.
Description: as §3

The subject of series [5] is mice. Description: Toxicity in mice (LD50; 30-day daily dosing). In kind it is in vivo. As to conditions: 160, 40 and 10 mg/kg orally or intraperitoneally daily to mice for 30 days.
Series [6] concerns rat. Put plainly: Blood pressure in rats. The format is in vivo. To be noted: for systolic blood pressure lowered to: 6.25 mg/kg i.p. How it is done: as §3
When 6.25 mg/kg was intraperitoneally injected to a rat of 185 mm. systolic blood pressure and another rat of 188 mm., the blood pressure was then lowered to 115-145 mm. and 138-166 mm. respectively during 1-22 hours after the injection. When […]. was intraperitoneally injected to a rat of 190 mm. systolic blood pressure, the pressure was reduced to 146-162 mm. during 1-22 hours after the injection. […] It caused 20-30% reduction of blood pressure which continued for about 5 days after the last oral administration.

For series [7], the target named is T2, Tyrosine Hydroxylase (Bos taurus, UniProt P17289).
T2 sequence (P17289 1-491): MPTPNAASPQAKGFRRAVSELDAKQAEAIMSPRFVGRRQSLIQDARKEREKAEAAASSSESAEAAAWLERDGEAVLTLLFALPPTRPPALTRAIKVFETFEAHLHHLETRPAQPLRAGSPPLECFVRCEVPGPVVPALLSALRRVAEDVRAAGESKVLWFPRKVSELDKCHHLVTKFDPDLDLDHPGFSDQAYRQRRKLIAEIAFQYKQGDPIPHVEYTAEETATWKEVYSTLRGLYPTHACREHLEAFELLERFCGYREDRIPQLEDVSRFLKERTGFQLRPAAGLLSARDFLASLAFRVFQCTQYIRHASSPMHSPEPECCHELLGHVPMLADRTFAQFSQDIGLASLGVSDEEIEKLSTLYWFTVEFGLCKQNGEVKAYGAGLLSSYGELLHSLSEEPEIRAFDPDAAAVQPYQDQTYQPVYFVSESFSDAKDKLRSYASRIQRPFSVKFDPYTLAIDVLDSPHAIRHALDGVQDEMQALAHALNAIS
Put plainly: Inhibition of tyrosine hydroxylase (TH). To be noted: for inhibition at 200 µg/mL: 200 mcg/cc. In kind it is biochemical.
Description: as §1, §2

A short description of series [8]: Lowering of blood pressure (general statements). Also on record: species or system mammals. As to conditions: in vivo.
For series [9], the system named is bacteria and fungi. To be noted: Chemical Abstracts 50, 980e; cited from earlier work.
Setting [10] is: oral daily for three days, 3.1, 6.25, 12.5, 25 mg/kg.

SMILES strings stand for the structures. pIC50: −log10 of the molar value.

Broadly, the LD50 is the dose expected to kill half of the subjects tested. High values mean a less toxic substance, low ones a more toxic substance. What is called pIC50 is the IC50 on a negative log10 scale, so that one unit is a factor of ten. A higher pIC50 goes with a low IC50. `COc1ccccc1CCC(=O)C1C(=O)C=C(C)OC1=O` (stereo not drawn) [3-(2-methoxyhydrocinnamoyl)-6-methyl-2H-pyran-2,4(3H)-dione] [listing 1 of 2 here]: in [1], the LD50 was 1200 mg/kg. Besides, the negative logarithm of the IC50 (pIC50) in series [2] was 5.72.

As to `COc1ccccc1CCC(=O)C1C(=O)C=C(C)OC1=O` (stereo not drawn) [3-(2-methoxyhydrocinnamoyl)-6-methyl-2H-pyran-2,4(3H)-dione] [listing 2 of 2 here], the hypotensive effect entry in series [3] is listed as “even more markedly”. The “sleeping and sedative effect” value in series [4] was “did not cause sleeping and a sedative effect was not recognized”. Moreover, in [5], the usual toxic signs result is “none of the usual toxic signs appeared except a decrease in the blood pressure”. The “duration of blood pressure reduction after the last oral administration” value in [6] (setting [10]) was “about 5 days”. For the same compound, the “reduction of blood pressure” value in series [6] (setting [10]) was 20-30%. Besides, the “reduction of blood pressure (in words)” value in series [6] (setting [10]) is on record as “marked reduction of blood pressure”. The “systolic blood pressure lowered to” value is reported as 115-145 mm in [6] (rat of 185 mm systolic, during 1-22 hours after injection) and 138-166 mm in series [6] (rat of 188 mm systolic, during 1-22 hours after injection). Besides, in [6] (rat of 190 mm systolic, 12.5 mm/kg (so in the source) i.p., during 1-22 hours after injection), the “systolic blood pressure reduced to” value is 146-162 mm. Moreover, the “systolic and diastolic blood pressure” value in series [6] (rats, daily injection or daily oral administration, 3.5 mg/kg) is “lowered both the systolic and the diastolic blood pressure”. Further, the “inhibition % to tyrosine hydroxylase” value was found to be 10% in series [7] (12.5 mcg/cc), 18% in [7] (25 mcg/cc), 22% in series [7] (50 mcg/cc) and 32% in series [7] (100 mcg/cc).

Broadly, the inhibition is how much of the control response was suppressed. Read a high inhibition as strong suppression. As for `COc1ccc(CCC(=O)C2C(=O)C=C(C)OC2=O)cc1OC` (stereo not drawn) [3-(3,4-dimethoxyhydrocinnamoyl)-6-methyl-2H-pyran-2,4(3H)-dione, reference compound], in series [8], the “blood pressure reducing (hypotensive) activity, in words” value is listed as “active in reducing blood pressure”. The inhibition at 200 µg/mL worked out at 32.5% in [2] and 72.5% in series [7]. In series [7] (100 mcg/cc), this compound yielded an inhibition at 100 µg/mL of 61.3%.

With `CC1=CC(=O)C(C(=O)CCc2ccccc2)C(=O)O1` (stereo not drawn) [3-hydrocinnamoyl-6-methyl-2H-pyran-2,4(3H)-dione, reference compound], the “blood pressure reducing (hypotensive) activity, in words” value in series [8] is “active in reducing blood pressure”. Further, the “antibacterial and antifungal activity” value in [9] is “weak antibacterial and antifungal activity”. In series [2] (100 mcg/cc), the “inhibition to DH” value worked out at 100%. At 100 µg/mL the inhibition in series [7] (100 mcg/cc) was 49.7%. In series [7], this compound showed an inhibition at 200 µg/mL of 52.8%.

`COc1cc(CCC(=O)C2C(=O)C=C(C)OC2=O)cc(OC)c1O` (stereo not drawn) [Example 35] came in with an inhibition at 200 µg/mL in series [2] of 43.6%. The inhibition at 100 µg/mL in series [7] (100 mcg/cc) was 45.8%.

Regarding `CC1=CC(=O)C(C(=O)CCc2cccc3ccccc23)C(=O)O1` (stereo not drawn) [Example 36], in series [2], 200 µg/mL produced 56.2% inhibition. This compound also had an inhibition at 100 µg/mL in [7] (100 mcg/cc) of 34.8%.

For `CC1=CC(=O)C(C(=O)CCc2c(O)ccc3ccccc23)C(=O)O1` (stereo not drawn) [Example 37], the inhibition at 200 µg/mL amounted to 44.7% in series [2] and 57.2% in series [7]. Further, the inhibition at 100 µg/mL in series [7] (100 mcg/cc) is 41.8%.

Compound `CC1=CC(=O)C(C(=O)CCc2cccs2)C(=O)O1` (stereo not drawn) [Example 38] gave an inhibition at 200 µg/mL in [2] of 30.3%. In series [7] (100 mcg/cc), this compound came in with an inhibition at 100 µg/mL of 52.3%.

Compound `CC1=CC(=O)C(C(=O)CCc2ccc[nH]2)C(=O)O1` (stereo not drawn) [Example 39] returned an inhibition at 200 µg/mL in series [2] of 25.1%. In series [7] (100 mcg/cc), this compound returned an inhibition at 100 µg/mL of 30.9%.

The record behind these values is US3963756A, “Derivatives of 6-methyl-2H-pyran-2,4(3H)-dione” (Zaidan Hojin Biseibutsu Kagaku Kenkyu Kai, priority 1972, dated 1976).
